Source: ChEMBL document CHEMBL1201861, “Genomics of Drug Sensitity in Cancer screening data, Wellcome Trust Sanger Institute”

What was measured:
Assay in all cases: cells
[1] = system: Calu-6; assay type: functional, cell-based, Homo sapiens; details: Homo sapiens, Calu-6;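 note: growth of human Calu-6 cells, read out by a cell viability assay, IC50 marking inhibition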
Description: SANGER: Inhibition of human Calu-6 cell growth in a cell viability assay.

[2] = system: D-336MG; assay type: functional, cell-based, Homo sapiens; details: Homo sapiens, D-336MG
Description: SANGER: Inhibition of human D-336MG cell growth in a cell viability assay.

[3] = system: DB; assay type: functional, cell-based; details: Homo sapiens
Description: SANGER: Inhibition of human DB cell growth in a cell viability assay.

[4] = system: EFO-21; assay type: functional, cell-based, Homo sapiens; details: Homo sapiens, EFO-21;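 note: growth inhibition of EFO-21 cells measured with a viability assay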
Description: SANGER: Inhibition of human EFO-21 cell growth in a cell viability assay.

[5] = system: EFO-27; assay type: functional, cell-based, Homo sapiens; details: Homo sapiens, EFO-27;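 note: growth inhibition of EFO-27 cells, read out with a cell viability assay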
Description: SANGER: Inhibition of human EFO-27 cell growth in a cell viability assay.

[6] = system: ETK-1; assay type: functional, cell-based, Homo sapiens; details: Homo sapiens, ETK-1;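 note: growth inhibition of human ETK-1 cells, read out with a cell viability assay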
Description: SANGER: Inhibition of human ETK-1 cell growth in a cell viability assay.

[7] = system: EW-16; assay type: functional, cell-based, Homo sapiens; details: Homo sapiens, EW-16;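 note: growth inhibition of human EW-16 cells, read out as cell viability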
Description: SANGER: Inhibition of human EW-16 cell growth in a cell viability assay.

[8] = system: GB-1; assay type: functional, cell-based, Homo sapiens; details: Homo sapiens, GB-1;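 note: growth of GB-1 cells judged by a viability assay, IC50 marks the concentration inhibiting growth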
Description: SANGER: Inhibition of human GB-1 cell growth in a cell viability assay.

[9] = system: HLE; assay type: functional, cell-based, Homo sapiens; details: Homo sapiens, HLE;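 note: growth inhibition of human HLE cells, read out by a cell viability assay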
Description: SANGER: Inhibition of human HLE cell growth in a cell viability assay.

[10] = system: KGN; assay type: functional, cell-based, Homo sapiens; details: Homo sapiens, KGN;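 note: growth inhibition of KGN cells, read out with a cell viability assay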
[11] = system: KNS-81-FD; assay type: functional, cell-based, Homo sapiens; details: Homo sapiens, KNS-81-FD;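 note: growth inhibition of KNS-81-FD cells, read out with a cell viability assay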
Description: SANGER: Inhibition of human KNS-81-FD cell growth in a cell viability assay.

[12] = system: KYSE-510; assay type: functional, cell-based, Homo sapiens; details: Homo sapiens, KYSE-510;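 note: cell viability readout used to measure how strongly growth of the cell line is suppressed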
Description: SANGER: Inhibition of human KYSE-510 cell growth in a cell viability assay.

[13] = system: KYSE-70 cell line; assay type: functional, cell-based, Homo sapiens; details: Homo sapiens, KYSE-70;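 note: cell viability assay read-out, with IC50 expressing suppression of KYSE-70 cell growth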
Description: SANGER: Inhibition of human KYSE-70 cell growth in a cell viability assay.

[14] = system: LB771-HNC; assay type: functional, cell-based, Homo sapiens; details: Homo sapiens, LB771-HNC;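 note: growth inhibition of LB771-HNC human cells, read out with a cell viability assay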
[15] = system: LU-99A; assay type: functional, cell-based, Homo sapiens; details: Homo sapiens, LU-99A;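 note: growth inhibition of LU-99A cells, read out with a cell viability assay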
Description: SANGER: Inhibition of human LU-99A cell growth in a cell viability assay.

[16] = system: MC116; assay type: functional, cell-based; details: Homo sapiens;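 note: growth inhibition of MC116 cells, read out with a cell viability assay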
Description: SANGER: Inhibition of human MC116 cell growth in a cell viability assay.

[17] = system: MDA-MB-157; assay type: functional, cell-based, Homo sapiens; details: Homo sapiens, MDA-MB-157
Description: SANGER: Inhibition of human MDA-MB-157 cell growth in a cell viability assay.

[18] = system: MEL-HO; assay type: functional, cell-based, Homo sapiens; details: Homo sapiens, MEL-HO
Description: SANGER: Inhibition of human MEL-HO cell growth in a cell viability assay.

[19] = system: MKN-1; assay type: functional, cell-based, Homo sapiens; details: Homo sapiens, MKN-1;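 note: growth inhibition of human MKN1 cells, read out by a cell viability measurement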
Description: SANGER: Inhibition of human MKN1 cell growth in a cell viability assay.

[20] = system: MeWo; assay type: functional, cell-based, Homo sapiens; details: Homo sapiens, MeWo;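 note: growth inhibition of MeWo cells, determined by a cell viability readout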
Description: SANGER: Inhibition of human Mewo cell growth in a cell viability assay.

[21] = system: NB12; assay type: functional, cell-based, Homo sapiens; details: Homo sapiens, NB12;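 note: growth inhibition of human NB12 cells, read out by a cell viability assay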
Description: SANGER: Inhibition of human NB12 cell growth in a cell viability assay.

[22] = system: NB14; assay type: functional, cell-based; details: Homo sapiens;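 note: growth inhibition of NB14 cells measured with a cell viability assay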
Description: SANGER: Inhibition of human NB14 cell growth in a cell viability assay.

[23] = system: NCI-H1299; assay type: functional, cell-based, Homo sapiens; details: Homo sapiens, NCI-H1299;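 note: growth inhibition of human NCI-H1299 cells, read out by a cell viability assay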
Description: SANGER: Inhibition of human NCI-H1299 cell growth in a cell viability assay.

[24] = system: NCI-H1437; assay type: functional, cell-based, Homo sapiens; details: Homo sapiens, NCI-H1437;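 note: growth inhibition of human NCI-H1437 cells, read out by a cell viability assay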
Description: SANGER: Inhibition of human NCI-H1437 cell growth in a cell viability assay.

[25] = system: NCI-H1581; assay type: functional, cell-based, Homo sapiens; details: Homo sapiens, NCI-H1581;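 note: cell growth inhibition read out by a viability assay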
Description: SANGER: Inhibition of human NCI-H1581 cell growth in a cell viability assay.

[26] = system: NCI-H1838; assay type: functional, cell-based, Homo sapiens; details: Homo sapiens, NCI-H1838;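 note: growth inhibition of NCI-H1838 cells, determined with a cell viability readout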
Description: SANGER: Inhibition of human NCI-H1838 cell growth in a cell viability assay.

[27] = system: NCI-H226; assay type: functional, cell-based, Homo sapiens; details: Homo sapiens, NCI-H226;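 note: cell viability read-out used to gauge growth inhibition of the cells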
Description: SANGER: Inhibition of human NCI-H226 cell growth in a cell viability assay.

[28] = system: SNU-5; assay type: functional, cell-based; details: Homo sapiens;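 note: cell viability readout used to measure growth inhibition in human NCI-SNU-5 cells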
Description: SANGER: Inhibition of human NCI-SNU-5 cell growth in a cell viability assay.

[29] = system: OAW-42; assay type: functional, cell-based, Homo sapiens; details: Homo sapiens, OAW-42;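 note: growth inhibition of OAW-42 cells, read out with a cell viability assay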
Description: SANGER: Inhibition of human OAW-42 cell growth in a cell viability assay.

[30] = system: OCI-AML2; assay type: functional, cell-based; details: Homo sapiens;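 note: growth inhibition of OCI-AML2 cells, read out with a cell viability assay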
Description: SANGER: Inhibition of human OCI-AML2 cell growth in a cell viability assay.

[31] = system: OVCAR-3; assay type: functional, cell-based, Homo sapiens; details: Homo sapiens, OVCAR-3;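 note: growth inhibition of human OVCAR-3 cells, determined by a cell viability assay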
Description: SANGER: Inhibition of human OVCAR-3 cell growth in a cell viability assay.

[32] = system: P30-OHK; assay type: functional, cell-based; details: Homo sapiens;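 note: growth inhibition of the P30-OHK cell line, read out with a cell viability assay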
Description: SANGER: Inhibition of human P30-OHK cell growth in a cell viability assay.

[33] = system: RXF 393; assay type: functional, cell-based; details: Homo sapiens;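 note: growth inhibition of human RXF 393 cells, read out with a cell viability assay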
[34] = system: Ramos-2G6-4C10; assay type: functional, cell-based; details: Homo sapiens;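 note: growth inhibition of the cell line, measured by a cell viability read-out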
Description: SANGER: Inhibition of human Ramos-2G6-4C10 cell growth in a cell viability assay.

[35] = system: SHP77; assay type: functional, cell-based, Homo sapiens, SHP-77; details: Homo sapiens, SHP77;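 note: growth inhibition of human SHP-77 cells measured by a cell viability assay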
Description: SANGER: Inhibition of human SHP-77 cell growth in a cell viability assay.

[36] = system: SJSA-1; assay type: functional, cell-based, Homo sapiens; details: Homo sapiens, SJSA-1;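 note: growth inhibition of human SJSA-1 cells, read out through a cell viability measurement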
Description: SANGER: Inhibition of human SJSA-1 cell growth in a cell viability assay.

[37] = system: SNB-75; assay type: functional, cell-based, Homo sapiens; details: Homo sapiens, SNB-75;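 note: cell viability assay measuring growth inhibition of human SNB-75 cells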
Description: SANGER: Inhibition of human SNB75 cell growth in a cell viability assay.

[38] = system: SNU-387; assay type: functional, cell-based, Homo sapiens; details: Homo sapiens, SNU-387
Description: SANGER: Inhibition of human SNU-387 cell growth in a cell viability assay.

[39] = system: SW948; assay type: functional, cell-based, Homo sapiens; details: Homo sapiens, SW948;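 note: growth inhibition of SW948 cells, read out with a cell viability assay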
Description: SANGER: Inhibition of human SW948 cell growth in a cell viability assay.

[40] = system: ACN; assay type: functional, cell-based, Homo sapiens; details: Homo sapiens, ACN;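 note: growth inhibition of the human ACN cell line, read out via cell viability testing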
Description: SANGER: Inhibition of human ACN cell growth in a cell viability assay.

[41] = system: AN3-CA; assay type: functional, cell-based; details: Homo sapiens;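 note: growth inhibition of human AN3-CA cells measured by a cell viability assay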
Description: SANGER: Inhibition of human AN3-CA cell growth in a cell viability assay.

[42] = system: BFTC-909; assay type: functional, cell-based, Homo sapiens; details: Homo sapiens, BFTC-909
Description: SANGER: Inhibition of human BFTC-909 cell growth in a cell viability assay.

[43] = system: BT-474; assay type: functional, cell-based, Homo sapiens; details: Homo sapiens, BT-474
Description: SANGER: Inhibition of human BT-474 cell growth in a cell viability assay.

[44] = system: C32; assay type: functional, cell-based, Homo sapiens; details: Homo sapiens, C32;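 note: cell viability assay, with IC50 reflecting inhibition of C32 cell growth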
Description: SANGER: Inhibition of human C32 cell growth in a cell viability assay.

[45] = system: TGBC1TKB; assay type: functional, cell-based, Homo sapiens; details: Homo sapiens, TGBC1TKB;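 note: growth inhibition of TGBC1TKB cells, read out by a cell viability assay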
Description: SANGER: Inhibition of human TGBC1TKB cell growth in a cell viability assay.

[46] = system: U2OS; assay type: functional, cell-based, Homo sapiens, U-2-OS; details: Homo sapiens, U2OS;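 note: growth inhibition of human U-2-OS cells, determined with a cell viability assay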
Description: SANGER: Inhibition of human U-2-OS cell growth in a cell viability assay.

[47] = system: YKG-1; assay type: functional, cell-based, Homo sapiens; details: Homo sapiens, YKG-1;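 note: cell growth inhibition, read out with a viability assay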
Description: SANGER: Inhibition of human YKG-1 cell growth in a cell viability assay.

[48] = system: no-10; assay type: functional, cell-based, Homo sapiens; details: Homo sapiens;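 note: growth inhibition of no-10 cells, read out with a cell viability assay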
Description: SANGER: Inhibition of human no-10 cell growth in a cell viability assay.

[49] = system: CHP-212; assay type: functional, cell-based, Homo sapiens; details: Homo sapiens, CHP-212
Description: SANGER: Inhibition of human CHP-212 cell growth in a cell viability assay.

[50] = system: HCC1187; assay type: functional, cell-based, Homo sapiens; details: Homo sapiens, HCC1187;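 note: growth inhibition of HCC1187 cells, read out with a cell viability assay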
Description: SANGER: Inhibition of human HCC1187 cell growth in a cell viability assay.

## CN(Cc1cnc2nc(N)nc(N)c2n1)c1ccc(C(=O)N[C@@H](CCC(=O)O)C(=O)O)cc1 [METHOTREXATE]
[1]
  IC50: > 0.2 µM
[2]
  IC50: > 200 nM
[3]
  IC50: 0.0213 µM
[4]
  IC50: > 200 nM
[5]
  IC50: > 200 nM
[6]
  IC50: > 0.2 µM
[7]
  IC50: > 0.2 µM
[8]
  IC50: > 200 nM
[9]
  IC50: > 200 nM
[10]
  IC50: 150 nM
[11]
  IC50: > 0.2 µM
[12]
  IC50: 91.7 nM
[13]
  IC50: > 200 nM
[14]
  IC50: > 0.2 µM
[15]
  IC50: > 200 nM
[16]
  IC50: 0.0606 µM
[17]
  IC50: > 200 nM
[18]
  IC50: > 200 nM
[19]
  IC50: > 200 nM
[20]
  IC50: > 200 nM
[21]
  IC50: > 0.2 µM
[22]
  IC50: 0.075 µM
[23]
  IC50: > 0.2 µM
[24]
  IC50: > 200 nM
[25]
  IC50: > 0.2 µM
[26]
  IC50: > 0.2 µM
[27]
  IC50: > 0.2 µM
[28]
  IC50: > 0.2 µM
[29]
  IC50: > 200 nM
[30]
  IC50: > 0.2 µM
[31]
  IC50: > 200 nM
[32]
  IC50: 0.0436 µM
[33]
  IC50: > 200 nM
[34]
  IC50: 0.0269 µM
[35]
  IC50: > 0.2 µM
[36]
  IC50: > 0.2 µM
[37]
  IC50: > 0.2 µM
[38]
  IC50: > 200 nM
[39]
  IC50: > 200 nM
[40]
  IC50: > 200 nM
[41]
  IC50: > 200 nM
[42]
  IC50: > 200 nM
[43]
  IC50: > 0.2 µM
[44]
  IC50: > 200 nM
[45]
  IC50: > 0.2 µM
[46]
  IC50: 182 nM
[47]
  IC50: > 200 nM
[48]
  IC50: > 200 nM
[49]
  IC50: > 200 nM

## CNC(=O)c1cc(Oc2ccc(NC(=O)Nc3ccc(Cl)c(C(F)(F)F)c3)cc2)ccn1 [SORAFENIB]
[1]
  IC50: > 4 µM
[2]
  IC50: > 4000 nM
[3]
  IC50: > 4 µM
[6]
  IC50: > 4 µM
[7]
  IC50: > 4 µM
[8]
  IC50: > 4000 nM
[50]
  IC50: > 4 µM
[10]
  IC50: > 4000 nM
[11]
  IC50: > 4 µM
[14]
  IC50: > 4 µM
[16]
  IC50: > 4 µM
[21]
  IC50: > 4 µM
[22]
  IC50: > 4 µM
[23]
  IC50: > 4 µM
[25]
  IC50: > 4 µM
[26]
  IC50: > 4 µM
[27]
  IC50: > 4 µM
[28]
  IC50: > 4 µM
[30]
  IC50: > 4 µM
[32]
  IC50: > 4 µM
[33]
  IC50: > 4000 nM
[34]
  IC50: > 4 µM
[35]
  IC50: > 4 µM
[36]
  IC50: > 4 µM
[37]
  IC50: > 4 µM
[40]
  IC50: > 4000 nM
[43]
  IC50: > 4 µM
[45]
  IC50: > 4 µM
[48]
  IC50: 1620 nM

## C=C1C(=O)O[C@@H]2C3O[C@]3(C)CC/C=C(\C)CC[C@@H]12 (some centres undefined)
[1]
  IC50: > 5 µM
[2]
  IC50: > 5000 nM
[3]
  IC50: > 5 µM
[6]
  IC50: > 5 µM
[7]
  IC50: > 5 µM
[8]
  IC50: > 5000 nM
[50]
  IC50: > 5 µM
[10]
  IC50: > 5000 nM
[11]
  IC50: > 5 µM
[14]
  IC50: > 5 µM
[16]
  IC50: > 5 µM
[21]
  IC50: > 5 µM
[22]
  IC50: > 5 µM
[23]
  IC50: > 5 µM
[25]
  IC50: > 5 µM
[26]
  IC50: > 5 µM
[27]
  IC50: > 5 µM
[28]
  IC50: > 5 µM
[30]
  IC50: > 5 µM
[32]
  IC50: > 5 µM
[33]
  IC50: > 5000 nM
[34]
  IC50: > 5 µM
[35]
  IC50: > 5 µM
[36]
  IC50: > 5 µM
[37]
  IC50: > 5 µM
[40]
  IC50: > 5000 nM
[43]
  IC50: > 5 µM
[45]
  IC50: > 5 µM
[48]
  IC50: 1340 nM

## CCc1nc(N)nc(N)c1-c1ccc(Cl)cc1 [PYRIMETHAMINE]
[1]
  IC50: > 20 µM
[2]
  IC50: > 20000 nM
[3]
  IC50: > 20 µM
[6]
  IC50: 4.1 µM
[7]
  IC50: 15.8 µM
[8]
  IC50: > 20000 nM
[50]
  IC50: > 20 µM
[10]
  IC50: > 20000 nM
[11]
  IC50: > 20 µM
[14]
  IC50: > 20 µM
[16]
  IC50: 17.9 µM
[21]
  IC50: > 20 µM
[22]
  IC50: > 20 µM
[23]
  IC50: > 20 µM
[25]
  IC50: > 20 µM
[26]
  IC50: > 20 µM
[27]
  IC50: > 20 µM
[28]
  IC50: > 20 µM
[30]
  IC50: 8.5 µM
[32]
  IC50: > 20 µM
[33]
  IC50: > 20000 nM
[34]
  IC50: 5.64 µM
[35]
  IC50: > 20 µM
[36]
  IC50: 3.77 µM
[37]
  IC50: > 20 µM
[40]
  IC50: 2300 nM
[43]
  IC50: > 20 µM
[45]
  IC50: > 20 µM
[48]
  IC50: > 20000 nM

## CN1CCN(CCOc2cc(OC3CCOCC3)c3c(Nc4c(Cl)ccc5c4OCO5)ncnc3c2)CC1 [SARACATINIB]
[1]
  IC50: > 2 µM
[2]
  IC50: 503 nM
[3]
  IC50: > 2 µM
[6]
  IC50: > 2 µM
[7]
  IC50: 1.55 µM
[8]
  IC50: 1800 nM
[50]
  IC50: > 2 µM
[10]
  IC50: 1280 nM
[11]
  IC50: > 2 µM
[14]
  IC50: > 2 µM
[16]
  IC50: > 2 µM
[22]
  IC50: > 2 µM
[23]
  IC50: > 2 µM
[25]
  IC50: > 2 µM
[26]
  IC50: > 2 µM
[27]
  IC50: > 2 µM
[28]
  IC50: > 2 µM
[30]
  IC50: > 2 µM
[32]
  IC50: > 2 µM
[33]
  IC50: 1240 nM
[34]
  IC50: > 2 µM
[35]
  IC50: > 2 µM
[36]
  IC50: > 2 µM
[37]
  IC50: > 2 µM
[40]
  IC50: > 2000 nM
[43]
  IC50: > 2 µM
[45]
  IC50: > 2 µM
[48]
  IC50: > 2000 nM
